Source: US20130252935A1, “Monobactams” (PFIZER INC., priority 2010, published 2013)
Values after ≈ are worked out from the molar mass of the structure shown.

Key:
Format in all cases: cell-based
[1] = tested on: Pseudomonas aeruginosa UC-12120; experiment: minimum inhibitory concentration (MIC) testing according to CLSI guidelines, Pseudomonas aeruginosa; conditions: Pseudomonas aeruginosa, UC12120; UC-12120, wild-type, labeled as 1091-05; overnight incubation; lower of duplicate values; read-out: AB-MBT: Pseudomonas aeruginosa 1091-05: MIC (MstRcn)
Protocol: (§1) In order to assess the compounds biological activity, the in vitro anti-bacterial activity of selected compounds described in the Examples 1-69 was evaluated by minimum inhibitory concentration (MIC) testing according to Clinical and Laboratory Standards Institute (CLSI, formerly NCCLS) guidelines. See: Clinical and Laboratory Standards Institute. Methods for Dilution Antimicrobial Susceptibility Tests for Bacteria that Grow Aerobically; Approved Standard-Eighth Edition. CLSI document M7-A8 [ISBN 1-56238-689-1]. Clinical and Laboratory Standards Institute, 940 West Valley Road, Suite 1400, Wayne, Pa. 19087-1898 USA, 2006; also Clinical and Laboratory Standards Institute. Performance Standards for Antimicrobial Susceptibility Testing; Twentieth Informational Supplement. CLSI document M100-S20 [ISBN1-56238-716-2]. Clinical and Laboratory Standards Institute.
(§2) The MIC determination is a standard laboratory method for evaluating the antibacterial activity of a compound. The MIC represents the lowest drug concentration that inhibits visible growth of bacteria following overnight incubation. […] Typically, the drug concentration range is broken down into 2-fold increments (e.g. 0.06 μg/mL, 0.12 μg/mL. 0.25 μg/mL, 0.50 μg/mL, 1.0 μg/mL, etc.) and the various drug concentrations are all individually incubated overnight with approximately the same number of bacteria. The MIC is then determined by visually inspecting the drug effect at each concentration, and identifying the lowest drug concentration that has inhibited bacterial growth as compared to the drug free control. Typically, bacteria continue to grow at drug concentrations lower than the MIC and don't grow at concentrations at and above the MIC.
(§3) The MIC values described in Table 1 below were derived from assays wherein each test compound was evaluated in duplicate. In cases where the duplicate values varied by 0-2-fold, the lower of the two values was reported below. Generally speaking, if the duplicate values varied by more than 2-fold, the assay was considered non-valid and was repeated until the variation between duplicate runs was ≦2-fold. In line with the CLSI guidelines referred to above, both control organisms and reference compounds were utilized in each MIC assay to provide proper quality control. MIC values generated with these control organisms and reference compounds were required to fall within a defined range for the assay to be considered valid and be included herein. Those skilled in the art will recognize that MIC values can and do vary from experiment to experiment. Generally speaking, it should be recognized that MIC values often vary +/−2-fold from experiment to experiment. While a single MIC is reported for each compound and each microorganism, the reader should not conclude that each compound was only tested once. Several of the compounds were subjected to multiple tests. The data reported in Table 1 is reflective of the compounds relative activity and different MICs may have been generated on these occasions in light with the guidelines described above.
(§4) The following bacterial strains were used in these MIC determinations:
1) Pseudomonas aeruginosa UC-12120: Wild-type, labeled as 1091-05;

[2] = tested on: Acinetobacter baumannii/haemolyticus AB-3167; experiment: minimum inhibitory concentration (MIC) testing according to CLSI guidelines, Acinetobacter; conditions: Acinetobacter baumannii; multidrug-resistant clinical isolate AB-3167; overnight incubation; lower of duplicate values; read-out: AB-MBT: Acinetobacter baumanii AB-3167: MIC (MstRcnt)
Protocol: as §1, §2, §3, §4
3) Acinetobacter baumannii/haemolyticus: Multidrug-resistant clinical isolate, labeled as AB-3167.

[3] = tested on: Klebsiella pneumoniae 1000-02; experiment: minimum inhibitory concentration (MIC) testing according to CLSI guidelines, Klebsiella pneumoniae; conditions: Klebsiella pneumoniae; ciprofloxacin-resistant, ESBL-expressing clinical isolate 1000-02; overnight incubation; lower of duplicate values; read-out: AB-MBT: Klebsiella pneumoniae 1000-02: MIC (MstRcnt)
Protocol: as §1, §2, §3, §4
2) Klebsiella pneumoniae: Ciprofloxacin-resistant isolate, expresses extended-spectrum beta-lactamases (ESBL), clinical isolate, labeled as 1000-02;

MIC [1] [µg/mL] | MIC [3] [µg/mL] | SMILES | MIC [2] [µg/mL]
1 (≈ 1.49 µM) | 0.5 (≈ 0.746 µM) | CC(C)(O/N=C(\C(=O)N[C@@H]1C(=O)N(S(=O)(=O)O)[C@@H]1CNC(=O)c1csc(-c2cc(=O)c(O)c[nH]2)n1)c1csc(N)n1)C(=O)O [Example 20, 2-({[(1Z)-1-(2-amino-1,3-thiazol-4-yl)-2-({(2R,3S)-2-[({[2-(5-hydroxy-4-oxo-1,4-dihydropyridin-2-yl)-1,3-thiazol-4-yl]carbonyl}amino)methyl]-4-oxo-1-sulfoazetidin-3-yl}amino)-2-oxoethylidene]amino}oxy)-2-methylpropanoic acid] | 1 (≈ 1.49 µM)
8 (≈ 12 µM) | 64 (≈ 96 µM) | CC(C)(O/N=C(\C(=O)N[C@@H]1C(=O)N(S(=O)(=O)O)[C@@H]1COC(=O)c1ccnc(-c2cc(=O)c(O)c[nH]2)n1)c1csc(N)n1)C(=O)O [Example 21, 2-({[(1Z)-1-(2-amino-1,3-thiazol-4-yl)-2-({(2S,3S)-2-[({[2-(5-hydroxy-4-oxo-1,4-dihydropyridin-2-yl)pyrimidin-4-yl]carbonyl}oxy)methyl]-4-oxo-1-sulfoazetidin-3-yl}amino)-2-oxoethylidene]amino}oxy)-2-methylpropanoic acid] | > 64
4 (≈ 6.01 µM) | 32 (≈ 48.1 µM) | CC(C)(O/N=C(\C(=O)N[C@@H]1C(=O)N(S(=O)(=O)O)[C@@H]1CNC(=O)c1ccnc(-c2cc(=O)c(O)c[nH]2)n1)c1csc(N)n1)C(=O)O [Example 22, 2-({[(1Z)-1-(2-amino-1,3-thiazol-4-yl)-2-({(2R,3S)-2-[({[2-(5-hydroxy-4-oxo-1,4-dihydropyridin-2-yl)pyrimidin-4-yl]carbonyl}amino)methyl]-4-oxo-1-sulfoazetidin-3-yl}amino)-2-oxoethylidene]amino}oxy)-2-methylpropanoic acid] | 16 (≈ 24 µM)
1 (≈ 1.47 µM) | 0.25 (≈ 0.367 µM) | CC(C)(O/N=C(\C(=O)N[C@@H]1C(=O)N(S(=O)(=O)O)[C@@H]1CNC(=O)c1ccnc(-c2cc(=O)c(O)cn2O)n1)c1csc(N)n1)C(=O)O [Example 23, 2-({[(1Z)-1-(2-amino-1,3-thiazol-4-yl)-2-({(2R,3S)-2-[({[2-(1,5-dihydroxy-4-oxo-1,4-dihydropyridin-2-yl)pyrimidin-4-yl]carbonyl}amino)methyl]-4-oxo-1-sulfoazetidin-3-yl}amino)-2-oxoethylidene]amino}oxy)-2-methylpropanoic acid] | 0.25 (≈ 0.367 µM)
1 (≈ 1.5 µM) | 16 (≈ 24 µM) | CC(C)(O/N=C(\C(=O)N[C@@H]1C(=O)N(S(=O)(=O)O)[C@@H]1CNC(=O)c1cnc(-c2cc(=O)c(O)c[nH]2)nc1)c1csc(N)n1)C(=O)O [Example 24, 2-({[(1Z)-1-(2-amino-1,3-thiazol-4-yl)-2-({(2R,3S)-2-[({[2-(5-hydroxy-4-oxo-1,4-dihydropyridin-2-yl)pyrimidin-5-yl]carbonyl}amino)methyl]-4-oxo-1-sulfoazetidin-3-yl}amino)-2-oxoethylidene]amino}oxy)-2-methylpropanoic acid] | 2 (≈ 3 µM)
0.125 (≈ 0.19 µM) | 0.125 (≈ 0.19 µM) | Nc1nc(/C(=N/OC2(C(=O)O)CCCC2)C(=O)N[C@@H]2C(=O)N(S(=O)(=O)O)[C@@H]2CNC(=O)NCc2cc(=O)c(O)cn2O)cs1 [Example 26, 1-({[(1Z)-1-(2-amino-1,3-thiazol-4-yl)-2-({(2R,3S)-2-[({[(1,5-dihydroxy-4-oxo-1,4-dihydropyridin-2-yl)methyl]carbamoyl}amino)methyl]-4-oxo-1-sulfoazetidin-3-yl}amino)-2-oxoethylidene]amino}oxy)cyclopentanecarboxylic acid] | 0.25 (≈ 0.38 µM)
1 (≈ 1.48 µM) | 1 (≈ 1.48 µM) | Nc1nc(/C(=N/OC2(C(=O)O)CCOCC2)C(=O)N[C@@H]2C(=O)N(S(=O)(=O)O)[C@@H]2CNC(=O)NCc2cc(=O)c(O)cn2O)cs1 [Example 27, 4-({[(1Z)-1-(2-amino-1,3-thiazol-4-yl)-2-({(2R,3S)-2-[({[(1,5-dihydroxy-4-oxo-1,4-dihydropyridin-2-yl)methyl]carbamoyl}amino)methyl]-4-oxo-1-sulfoazetidin-3-yl}amino)-2-oxoethylidene]amino}oxy)tetrahydro-2H-pyran-4-carboxylic acid] | 2 (≈ 2.96 µM)
1 (≈ 1.49 µM) | 0.5 (≈ 0.743 µM) | Nc1nc(/C(=N/OC2(C(=O)O)CCCCC2)C(=O)N[C@@H]2C(=O)N(S(=O)(=O)O)[C@@H]2CNC(=O)NCc2cc(=O)c(O)cn2O)cs1 [Example 28, 1-({[(1Z)-1-(2-amino-1,3-thiazol-4-yl)-2-({(2R,3S)-2-[({[(1,5-dihydroxy-4-oxo-1,4-dihydropyridin-2-yl)methyl]carbamoyl}amino)methyl]-4-oxo-1-sulfoazetidin-3-yl}amino)-2-oxoethylidene]amino}oxy)cyclohexanecarboxylic acid] | 1 (≈ 1.49 µM)
0.25 (≈ 0.375 µM) | 1 (≈ 1.5 µM) | CC(C)(O/N=C(\C(=O)N[C@@H]1C(=O)N(S(=O)(=O)O)[C@@H]1CNC(=O)NCc1cc(=O)c(O)cn1O)c1nc(N)sc1Cl)C(=O)O [Example 29, 2-({[(1Z)-1-(2-amino-5-chloro-1,3-thiazol-4-yl)-2-({(2R,3S)-2-[({[(1,5-dihydroxy-4-oxo-1,4-dihydropyridin-2-yl)methyl]carbamoyl}amino)methyl]-4-oxo-1-sulfoazetidin-3-yl}amino)-2-oxoethylidene]amino}oxy)-2-methylpropanoic acid] | 0.5 (≈ 0.75 µM)
0.125 (≈ 0.194 µM) | 0.125 (≈ 0.194 µM) | Nc1nc(/C(=N/OC2(C(=O)O)CCC2)C(=O)N[C@@H]2C(=O)N(S(=O)(=O)O)[C@@H]2CNC(=O)NCc2cc(=O)c(O)cn2O)cs1 [Example 30, 1-({[(1Z)-1-(2-amino-1,3-thiazol-4-yl)-2-({(2R,3S)-2-[({[(1,5-dihydroxy-4-oxo-1,4-dihydropyridin-2-yl)methyl]carbamoyl}amino)methyl]-4-oxo-1-sulfoazetidin-3-yl}amino)-2-oxoethylidene]amino}oxy)cyclobutanecarboxylic acid] | 0.25 (≈ 0.388 µM)
1 (≈ 1.51 µM) | 0.5 (≈ 0.757 µM) | CC(C)C[C@H](O/N=C(\C(=O)N[C@@H]1C(=O)N(S(=O)(=O)O)[C@@H]1CNC(=O)NCc1cc(=O)c(O)cn1O)c1csc(N)n1)C(=O)O [Example 31, (2S)-2-({[(1Z)-1-(2-amino-1,3-thiazol-4-yl)-2-({(2R,3S)-2-[({[(1,5-dihydroxy-4-oxo-1,4-dihydropyridin-2-yl)methyl]carbamoyl}amino)methyl]-4-oxo-1-sulfoazetidin-3-yl}amino)-2-oxoethylidene]amino}oxy)-4-methylpentanoic acid] | 0.5 (≈ 0.757 µM)
1 (≈ 1.44 µM) | 1 (≈ 1.44 µM) | Nc1nc(/C(=N/O[C@@H](Cc2ccccc2)C(=O)O)C(=O)N[C@@H]2C(=O)N(S(=O)(=O)O)[C@@H]2CNC(=O)NCc2cc(=O)c(O)cn2O)cs1 [Example 32, (2S)-2-({[(1Z)-1-(2-amino-1,3-thiazol-4-yl)-2-({(2R,3S)-2-[({[(1,5-dihydroxy-4-oxo-1,4-dihydropyridin-2-yl)methyl]carbamoyl}amino)methyl]-4-oxo-1-sulfoazetidin-3-yl}amino)-2-oxoethylidene]amino}oxy)-3-phenylpropanoic acid] | 1 (≈ 1.44 µM)
0.25 (≈ 0.395 µM) | 2 (≈ 3.16 µM) | CC(C)(O/N=C(\C(=O)N[C@@H]1C(=O)N(S(=O)(=O)O)[C@@H]1CNC(=O)NCc1cc(=O)c(O)cn1O)c1nsc(N)n1)C(=O)O [Example 33, 2-({[(1Z)-1-(5-amino-1,2,4-thiadiazol-3-yl)-2-({(2R,3S)-2-[({[(1,5-dihydroxy-4-oxo-1,4-dihydropyridin-2-yl)methyl]carbamoyl}amino)methyl]-4-oxo-1-sulfoazetidin-3-yl}amino)-2-oxoethylidene]amino}oxy)-2-methylpropanoic acid] | 0.5 (≈ 0.789 µM)
